Source: US11932655B1, “12-bromo-2,16-dioxapentacyclo[7.7.5.01,21.03,8.010,15]henicosa3(8),10,12,14-tetraene-7,20-dione as an antimicrobial compound” (KING FAISAL UNIVERSITY, priority 2023, dated 2024)

Tests used:
Test in all cases: Antimicrobial activity, agar dilution, exposure-time test
Format in all cases: cell-based
Details in all cases: after 10, 20, 40 and 60 minutes at all dilutions 1:100 to 1:800
Candida albicans = test system: Candida albicans
Description: (§1) The antibacterial properties of the synthesized compound of 12-bromo-2,16-dioxapentacyclo[7.7.5.0^1,21.0^3,8.0^10,15]henicosa3(8),10,12,14-tetraene-7,20-dione were studied by the method of agar dilution. Test solutions of each compound was prepared in concentration of 1% using dimethylformamide as a solvent. Then they were diluted in physiological solution to obtain the final experimental dilutions of 1:100, 1:200, 1:400, and 1:800. The effect of these substances were compared with furacillin in a controllable study. The testing microbes used were gram positive bacteria Staphylococcus aureus, gram negative bacteria Pseudomonas aeruginosa, Escherichia coli, and Candida albicans fungus. The experiments used for this survey were meat-pentonlu agar (EPA) for cultivation of bacteria and Saburo environment for fungi. Each experiment used 1 mL of test solution on each plate for 500 minutes. Two drops of emulsified with microbes feel were added. All experimental samples were taken from the agar after 10, 20, 40, 60 minutes in the environment on the basis of Patrk planted. Bacteria were cultivated at a temperature of 37° C. for 1 day and the mushroom was kept in a thermostat for […] at a temperature of 28° C. Then results were checked. Those of the control and the antimicrobial activity for the synthesized compounds are listed in Table 1 below, with furacillin serving as a reference.

Escherichia coli = test system: Escherichia coli
Description: as §1

Staphylococcus aureus = test system: Staphylococcus aureus
Description: as §1

Pseudomonas aeruginosa = test system: Pseudomonas aeruginosa
Description: as §1

Measured: inhibition activity compared with Furacilin

O=C1CCCC2=C1C1c3cc(Br)ccc3OC3(CCCC(=O)C13)O2 (stereo not shown) [12-bromo-2,16-dioxapentacyclo[7.7.5.0^1,21.0^3,8.0^10,15]henicosa3(8),10,12,14-tetraene-7,20-dione]
higher inhibition activity: all assays above
